From ChEMBL document CHEMBL1201862, “PubChem BioAssay data set” (2004)
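Cells were grown in 96-well plates and exposed to each compound for 48 hours at five concentrations; endpoints were interpolated linearly between bracketing concentrations, or set to the highest concentration if not reached. The concentration for 50% growth inhibition is given as GI50.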 Calls of active or inactive are those of the source. Rule as the data show it: active = GI50 up to about 1.1 µM and inactive = higher.

Key:
Assay in all cases: inhibition of tumour cell growth, NCI panel, 48 h
HT-29 = system: HT-29
OVCAR-8 = system: OVCAR-8
OVCAR-3 = system: OVCAR-3
DMS-273 = system: DMS-273
SK-OV-3 = system: SK-OV-3
CCRF-CEM = system: CCRF-CEM
Malme-3M = system: Malme-3M
U-251 = system: U-251
OVCAR-5 = system: OVCAR-5
OVCAR-4 = system: OVCAR-4
SNB-78 = system: SNB-78
NCI-H23 = system: NCI-H23
SK-MEL-5 = system: SK-MEL-5
HOP-62 = system: HOP-62
SK-MEL-2 = system: SK-MEL-2
KM12 = system: KM12
TK-10 = system: TK-10
K562 = system: K562
NCI-H226 = system: NCI-H226
EKVX = system: EKVX
HOP-92 = system: HOP-92
HCT-15 = system: HCT-15
ACHN = system: ACHN
SF-295 = system: SF-295
M14 = system: M14
LOX IMVI = system: LOX IMVI
SNB-75 = system: SNB-75
UACC-257 = system: UACC-257
RPMI-8226 = system: RPMI-8226
SF-539 = system: SF-539
NCI-H460 = system: NCI-H460
SK-MEL-28 = system: SK-MEL-28
M19-MEL = system: M19-MEL
HCT-116 = system: HCT-116
A498 = system: A498
UACC-62 = system: UACC-62
IGROV-1 = system: IGROV-1
SN12C = system: SN12C
DLD-1 = system: DLD-1
SF-268 = system: SF-268
A549 = system: A549
LXFL 529 = system: LXFL 529
UO-31 = system: UO-31
HOP-18 = system: HOP-18
MOLT-4 = system: MOLT-4
SR = system: SR
KM-20L2 = system: KM-20L2
RXF 393 = system: RXF 393
HL-60 = system: HL-60
HCC 2998 = system: HCC 2998
DMS-114 = system: DMS-114
SNB-19 = system: SNB-19
SW-620 = system: SW-620
COLO 205 = system: COLO 205

Structure (SMILES): Nc1nncc2c1ccn2C1OC(CO)C(O)C1O (centres undefined)
- GI50 (HT-29): > 100 µM (inactive)
- GI50 (OVCAR-8): > 100 µM (inactive)
- GI50 (OVCAR-3): > 100 µM (inactive)
- GI50 (DMS-273): > 100 µM (inactive)
- GI50 (SK-OV-3): > 100 µM (inactive)
- GI50 (CCRF-CEM): > 100 µM (inactive)
- GI50 (Malme-3M): > 100 µM (inactive)
- GI50 (U-251): > 100 µM (inactive)
- GI50 (OVCAR-5): > 100 µM (inactive)
- GI50 (OVCAR-4): > 100 µM (inactive)
- GI50 (SNB-78): > 100 µM (inactive)
- GI50 (NCI-H23): > 100 µM (inactive)
- GI50 (SK-MEL-5): > 100 µM (inactive)
- GI50 (HOP-62): > 100 µM (inactive)
- GI50 (SK-MEL-2): > 100 µM (inactive)
- GI50 (KM12): > 100 µM (inactive)
- GI50 (TK-10): > 100 µM (inactive)
- GI50 (K562): > 100 µM (inactive)
- GI50 (NCI-H226): > 100 µM (inactive)
- GI50 (EKVX): > 100 µM (inactive)
- GI50 (HOP-92): > 100 µM (inactive)
- GI50 (HCT-15): > 100 µM
- GI50 (ACHN): > 100 µM (inactive)
- GI50 (SF-295): > 100 µM (inactive)
- GI50 (M14): > 100 µM (inactive)
- GI50 (LOX IMVI): > 100 µM (inactive)
- GI50 (SNB-75): > 100 µM (inactive)
- GI50 (UACC-257): > 100 µM (inactive)
- GI50 (RPMI-8226): > 100 µM (inactive)
- GI50 (SF-539): > 100 µM (inactive)
- GI50 (NCI-H460): > 100 µM (inactive)
- GI50 (SK-MEL-28): 82.8 µM (inactive)
- GI50 (M19-MEL): > 100 µM (inactive)
- GI50 (HCT-116): > 100 µM (inactive)
- GI50 (A498): > 100 µM (inactive)
- GI50 (UACC-62): > 100 µM (inactive)
- GI50 (IGROV-1): > 100 µM (inactive)
- GI50 (SN12C): > 100 µM (inactive)
- GI50 (DLD-1): > 100 µM (inactive)
- GI50 (SF-268): > 100 µM (inactive)
- GI50 (A549): > 100 µM (inactive)
- GI50 (LXFL 529): > 100 µM (inactive)
- GI50 (UO-31): > 100 µM (inactive)
- GI50 (HOP-18): > 100 µM (inactive)
- GI50 (MOLT-4): > 100 µM (inactive)
- GI50 (SR): > 100 µM (inactive)
- GI50 (KM-20L2): > 100 µM (inactive)
- GI50 (RXF 393): > 100 µM (inactive)
- GI50 (HL-60): > 100 µM (inactive)
- GI50 (HCC 2998): > 100 µM (inactive)
- GI50 (DMS-114): > 100 µM (inactive)
- GI50 (SNB-19): > 100 µM (inactive)
- GI50 (SW-620): > 100 µM (inactive)
- GI50 (COLO 205): > 100 µM (inactive)
